Test results from PubChem BioAssay (NCI).
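These data come from cells grown in 96-well plates and exposed to compound for 48 hours at five concentrations. GI50 is the concentration that inhibits growth by half. TGI marks complete inhibition of growth.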

Key:
Assay in all cases: growth of human tumour cells (NCI), 48 h
[1] = system: HL-60(TB) leukemia
[2] = system: RPMI-8226 leukemia
[3] = system: SR leukemia
[4] = system: A549 NSCLC
[5] = system: EKVX NSCLC
[6] = system: SF-268 CNS
[7] = system: K-562 leukemia
[8] = system: OVCAR-5 ovarian
[9] = system: NCI-H460 lung
[10] = system: U251 CNS
[11] = system: MDA-MB-435
[12] = system: HOP-62 NSCLC
[13] = system: COLO 205 colon
[14] = system: SN12C renal
[15] = system: UO-31 renal
[16] = system: MOLT-4 leukemia
[17] = system: HOP-92 NSCLC
[18] = system: CAKI-1 renal
[19] = system: PC-3 prostate
[20] = system: M14 melanoma
[21] = system: KM12 colon
[22] = system: OVCAR-3 ovarian
[23] = system: SK-MEL-5 melanoma
[24] = system: SW-620 colon
[25] = system: NCI/ADR-RES ovarian
[26] = system: HCT-15 colon
[27] = system: MALME-3M melanoma
[28] = system: NCI-H226 lung
[29] = system: ACHN renal
[30] = system: LOX IMVI melanoma
[31] = system: DU-145 prostate
[32] = system: SNB-19 CNS
[33] = system: SF-295 CNS
[34] = system: IGROV1 ovarian
[35] = system: A498 renal
[36] = system: UACC-62 melanoma
[37] = system: NCI-H23 lung
[38] = system: OVCAR-8 ovarian
[39] = system: MCF7 breast
[40] = system: MDA-MB-231 breast
[41] = system: 786-0 renal
[42] = system: T-47D breast
[43] = system: HS 578T breast
[44] = system: MDA-MB-468 breast
[45] = system: SF-539 CNS
[46] = system: SK-MEL-28 melanoma
[47] = system: SNB-75 CNS
[48] = system: OVCAR-4 ovarian
[49] = system: SK-MEL-2 melanoma
[50] = system: HCC-2998 colon
[51] = system: BT-549 breast
[52] = system: SK-OV-3 ovarian
[53] = system: CCRF-CEM leukemia
[54] = system: TK-10 renal
[55] = system: NCI-H522 lung
[56] = system: UACC-257 melanoma
[57] = system: HT29 colon
[58] = system: HCT-116 colon
[59] = system: RXF 393 renal

Question: How did the GI50 [1] turn out when `O=C(c1ccccc1)c1ccc2nc(-c3ccccc3Br)[nH]c2c1` was run?
Answer: The GI50 was 2040 nM.

Question: What about the TGI [1] of the same compound?
Answer: Its TGI is 6.05 µM.

Question: What about the GI50 [2] of the same compound?
Answer: The GI50 was 2650 nM.

Question: And the TGI [2]?
Answer: The TGI was 11.8 µM.

Question: And the GI50 [3]?
Answer: Its GI50 is 2510 nM.

Question: What about the TGI [3] of the same compound?
Answer: Its TGI is 12.7 µM.

Question: And the GI50 [4]?
Answer: Its GI50 is 10.2 µM.

Question: And the TGI [4]?
Answer: The TGI was 28.2 µM.

Question: And the GI50 [5]?
Answer: The GI50 was 2110 nM.

Question: And the TGI [5]?
Answer: Its TGI is 4.92 µM.

Question: And the GI50 [6]?
Answer: The GI50 was 3.1 µM.

Question: And the TGI [6]?
Answer: Its TGI is 12.3 µM.

Question: And the GI50 [7]?
Answer: Its GI50 is 2770 nM.

Question: And the TGI [7]?
Answer: Its TGI is > 100 µM.

Question: What about the GI50 [8] of the same compound?
Answer: The GI50 was 2480 nM.

Question: What about the TGI [8] of the same compound?
Answer: Its TGI is 5.7 µM.

Question: What about the GI50 [9] of the same compound?
Answer: The GI50 was 4.22 µM.

Question: And the TGI [9]?
Answer: Its TGI is 19.8 µM.

Question: And the GI50 [10]?
Answer: The GI50 was 2000 nM.

Question: What about the TGI [10] of the same compound?
Answer: The TGI was 4.59 µM.

Question: What about the GI50 [11] of the same compound?
Answer: The GI50 was 3.54 µM.

Question: And the TGI [11]?
Answer: Its TGI is 13.2 µM.

Question: And the GI50 [12]?
Answer: The GI50 was 3.23 µM.

Question: What about the TGI [12] of the same compound?
Answer: Its TGI is 8.5 µM.

Question: What about the GI50 [13] of the same compound?
Answer: The GI50 was 2040 nM.

Question: What about the TGI [13] of the same compound?
Answer: Its TGI is 3.94 µM.

Question: What about the GI50 [14] of the same compound?
Answer: Its GI50 is 2400 nM.

Question: What about the TGI [14] of the same compound?
Answer: Its TGI is 6.5 µM.

Question: And the GI50 [15]?
Answer: The GI50 was 4.95 µM.

Question: What about the TGI [15] of the same compound?
Answer: Its TGI is 17.4 µM.

Question: And the GI50 [16]?
Answer: The GI50 was 2210 nM.

Question: What about the TGI [16] of the same compound?
Answer: Its TGI is 11.5 µM.

Question: And the GI50 [17]?
Answer: Its GI50 is 2080 nM.

Question: And the TGI [17]?
Answer: Its TGI is 6.48 µM.

Question: And the GI50 [18]?
Answer: Its GI50 is 3.24 µM.

Question: What about the TGI [18] of the same compound?
Answer: Its TGI is 11.3 µM.

Question: And the GI50 [19]?
Answer: The GI50 was 2480 nM.

Question: What about the TGI [19] of the same compound?
Answer: Its TGI is 10.8 µM.

Question: And the GI50 [20]?
Answer: The GI50 was 1770 nM.

Question: And the TGI [20]?
Answer: The TGI was 4.38 µM.

Question: What about the GI50 [21] of the same compound?
Answer: The GI50 was 4.64 µM.

Question: And the TGI [21]?
Answer: The TGI was 18.5 µM.

Question: And the GI50 [22]?
Answer: Its GI50 is 2940 nM.

Question: What about the TGI [22] of the same compound?
Answer: Its TGI is 10.4 µM.

Question: What about the GI50 [23] of the same compound?
Answer: Its GI50 is 1850 nM.

Question: What about the TGI [23] of the same compound?
Answer: Its TGI is 3.79 µM.

Question: What about the GI50 [24] of the same compound?
Answer: The GI50 was 3.33 µM.

Question: And the TGI [24]?
Answer: The TGI was 13.2 µM.

Question: What about the GI50 [25] of the same compound?
Answer: The GI50 was 2440 nM.

Question: And the TGI [25]?
Answer: Its TGI is 6.66 µM.

Question: And the GI50 [26]?
Answer: Its GI50 is 1740 nM.

Question: What about the TGI [26] of the same compound?
Answer: Its TGI is 3.78 µM.

Question: And the GI50 [27]?
Answer: Its GI50 is 2110 nM.

Question: And the TGI [27]?
Answer: The TGI was 6.35 µM.

Question: And the GI50 [28]?
Answer: Its GI50 is 2660 nM.

Question: And the TGI [28]?
Answer: The TGI was 12.2 µM.

Question: And the GI50 [29]?
Answer: Its GI50 is 2270 nM.

Question: What about the TGI [29] of the same compound?
Answer: The TGI was 5.67 µM.

Question: And the GI50 [30]?
Answer: Its GI50 is 2450 nM.

Question: What about the TGI [30] of the same compound?
Answer: Its TGI is 10.4 µM.

Question: What about the GI50 [31] of the same compound?
Answer: The GI50 was 4.33 µM.

Question: What about the TGI [31] of the same compound?
Answer: Its TGI is 15.4 µM.

Question: What about the GI50 [32] of the same compound?
Answer: The GI50 was 4.41 µM.

Question: And the TGI [32]?
Answer: Its TGI is 16.8 µM.

Question: What about the GI50 [33] of the same compound?
Answer: The GI50 was 5.54 µM.

Question: And the TGI [33]?
Answer: Its TGI is 18.2 µM.

Question: What about the GI50 [34] of the same compound?
Answer: The GI50 was 3.51 µM.

Question: What about the TGI [34] of the same compound?
Answer: Its TGI is 13.9 µM.

Question: And the GI50 [35]?
Answer: The GI50 was 17.3 µM.

Question: And the TGI [35]?
Answer: The TGI was 33 µM.

Question: What about the GI50 [36] of the same compound?
Answer: The GI50 was 3.57 µM.

Question: What about the TGI [36] of the same compound?
Answer: The TGI was 16.4 µM.

Question: What about the GI50 [37] of the same compound?
Answer: The GI50 was 2080 nM.

Question: And the TGI [37]?
Answer: The TGI was 6.5 µM.

Question: And the GI50 [38]?
Answer: The GI50 was 3.81 µM.

Question: And the TGI [38]?
Answer: Its TGI is 35.4 µM.

Question: And the GI50 [39]?
Answer: Its GI50 is 2150 nM.

Question: And the TGI [39]?
Answer: The TGI was 7.67 µM.

Question: What about the GI50 [40] of the same compound?
Answer: Its GI50 is 4.84 µM.

Question: What about the TGI [40] of the same compound?
Answer: The TGI was 19.5 µM.

Question: What about the GI50 [41] of the same compound?
Answer: The GI50 was 2370 nM.

Question: What about the TGI [41] of the same compound?
Answer: The TGI was 4.77 µM.

Question: And the GI50 [42]?
Answer: Its GI50 is 2890 nM.

Question: What about the TGI [42] of the same compound?
Answer: The TGI was 11.3 µM.

Question: And the GI50 [43]?
Answer: The GI50 was 3.79 µM.

Question: And the TGI [43]?
Answer: The TGI was 54 µM.

Question: What about the GI50 [44] of the same compound?
Answer: The GI50 was 1730 nM.

Question: What about the TGI [44] of the same compound?
Answer: The TGI was 3.9 µM.

Question: And the GI50 [45]?
Answer: Its GI50 is 1770 nM.

Question: What about the TGI [45] of the same compound?
Answer: Its TGI is 3.33 µM.

Question: What about the GI50 [46] of the same compound?
Answer: The GI50 was 3.69 µM.

Question: What about the TGI [46] of the same compound?
Answer: Its TGI is 14.7 µM.

Question: And the GI50 [47]?
Answer: Its GI50 is 3.23 µM.

Question: What about the TGI [47] of the same compound?
Answer: The TGI was 13.4 µM.

Question: And the GI50 [48]?
Answer: The GI50 was 3.72 µM.

Question: And the TGI [48]?
Answer: Its TGI is 13.7 µM.

Question: And the GI50 [49]?
Answer: The GI50 was 2010 nM.

Question: What about the TGI [49] of the same compound?
Answer: The TGI was 4.92 µM.

Question: And the GI50 [50]?
Answer: Its GI50 is 8.69 µM.

Question: And the TGI [50]?
Answer: The TGI was 21.7 µM.

Question: What about the GI50 [51] of the same compound?
Answer: Its GI50 is 1530 nM.

Question: What about the TGI [51] of the same compound?
Answer: Its TGI is 3.15 µM.

Question: What about the GI50 [52] of the same compound?
Answer: The GI50 was 4.1 µM.

Question: And the TGI [52]?
Answer: The TGI was 12.6 µM.

Question: And the GI50 [53]?
Answer: The GI50 was 2240 nM.

Question: What about the TGI [53] of the same compound?
Answer: The TGI was 15.9 µM.

Question: And the GI50 [54]?
Answer: The GI50 was 8.18 µM.

Question: And the TGI [54]?
Answer: Its TGI is 21.3 µM.

Question: What about the GI50 [55] of the same compound?
Answer: The GI50 was 1530 nM.

Question: What about the TGI [55] of the same compound?
Answer: The TGI was 3.07 µM.

Question: What about the GI50 [56] of the same compound?
Answer: Its GI50 is 2590 nM.

Question: And the TGI [56]?
Answer: Its TGI is 12.7 µM.

Question: What about the GI50 [57] of the same compound?
Answer: The GI50 was 2270 nM.

Question: And the TGI [57]?
Answer: The TGI was 4.63 µM.

Question: And the GI50 [58]?
Answer: Its GI50 is 2310 nM.

Question: What about the TGI [58] of the same compound?
Answer: Its TGI is 8.15 µM.

Question: What about the GI50 [59] of the same compound?
Answer: The GI50 was 1610 nM.

Question: And the TGI [59]?
Answer: The TGI was 3.82 µM.
